The source of these data is patent publication US20140135310A1, “SULPHONAMIDE DERIVATIVES OF ALICYCLIC AMINES FOR THE TREATMENT OF CENTRAL NERVOUS SYSTEM DISEASES” (Adamed Sp. z o.o., priority 2011, published 2014).

Assay type in all cases: cell-based
The target of experiment [1] is D2 dopaminergic receptors (Homo sapiens, UniProt P14416). In words: Cellular functional assay, D2 dopaminergic receptors. The conditions noted are these: D2S (h), HEK-293 cells; for D2 ag [%]: agonism, percent of control specific agonist response (3 μM dopamine for control); for D2 antag [%]: antagonism, stimulus dopamine (30 nM). How it is done: (§1) The results are expressed as a percent of control specific agonist response ((measured specific response/control specific agonist response)×100) obtained in the presence of the test compounds.
(§2) The EC50 values (concentration producing a half-maximal specific response) and IC50 values (concentration causing a half-maximal inhibition of the control specific agonist response) were determined by non-linear regression analysis of the concentration-response curves generated with mean replicate values using Hill equation curve fitting (Y=D+[(A−D)/(1+(C/C50)nH)], where Y=specific response, D=minimum specific response, A=maximum specific response, C=compound concentration, and C50=EC50 or IC50, and nH=slope factor). This analysis was performed using a software developed at Cerep (Hill software) and validated by comparison with data generated by the commercial software SigmaPlot® 4.0 for Windows® (© 1997 by SPSS Inc.).
(§3) For the antagonists, the apparent dissociation constants (Kb) were calculated using the modified Cheng Prusoff equation (Kb=IC50/(1+(A/EC50A)), where A=concentration of reference agonist in the assay, and EC50A=EC50 value of the reference agonist).

Experiment [2] addresses D3 dopaminergic receptors (Homo sapiens, UniProt P35462). In words: Cellular functional assay, D3 dopaminergic receptors. The conditions noted are these: D3 (h), CHO cells; for D3 ag [%]: agonism, percent of control specific agonist response (0.3 μM dopamine for control); for D3 antag [%]: antagonism, stimulus dopamine (10 nM). How it is done: as §1, §2, §3
Experiment [3] addresses 5-HT2A serotoninergic receptors (Homo sapiens, UniProt P28223). In words: Cellular functional assay, 5-HT2A serotoninergic receptors. On the procedure:
as §1
The EC50 values (concentration producing a half-maximal specific response) and IC50 values (concentration causing a half-maximal inhibition of the control specific agonist response) were determined by non-linear regression analysis of the concentration-response curves generated with mean replicate values using Hill equation curve fitting (Y=D+[(A−D)/(1+(C/C50)nH)], where Y=specific response, D=minimum specific response, A=maximum specific response, C=compound concentration, and C50=EC50 or IC50, and nH=slope factor).
as §3

For experiment [4], the target named is 5-HT6 serotoninergic receptors (Homo sapiens, UniProt P50406). In words: Cellular functional assay, 5-HT6 serotoninergic receptors. Particulars: agonist mode; percent of control specific agonist response. On the procedure: as §1, §2, §3
Where [5] appears, read: agonist mode, percent of control specific agonist response.

Read-outs that look alike come from different tables or passages of the source.

Chain of 5-HT2A serotoninergic receptors (P28223 whole entry): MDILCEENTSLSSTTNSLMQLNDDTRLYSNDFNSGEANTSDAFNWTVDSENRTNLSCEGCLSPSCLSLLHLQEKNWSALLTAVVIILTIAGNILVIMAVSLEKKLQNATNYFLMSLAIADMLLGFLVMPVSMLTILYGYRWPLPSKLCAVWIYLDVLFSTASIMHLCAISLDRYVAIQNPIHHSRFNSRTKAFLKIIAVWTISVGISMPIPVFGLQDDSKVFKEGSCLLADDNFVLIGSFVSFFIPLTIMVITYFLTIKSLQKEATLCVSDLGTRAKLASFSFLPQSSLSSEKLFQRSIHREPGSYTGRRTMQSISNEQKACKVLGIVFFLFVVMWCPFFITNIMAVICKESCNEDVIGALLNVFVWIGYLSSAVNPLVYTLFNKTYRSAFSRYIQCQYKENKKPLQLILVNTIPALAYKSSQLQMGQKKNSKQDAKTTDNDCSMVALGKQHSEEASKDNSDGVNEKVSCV
Chain of 5-HT6 serotoninergic receptors (P50406 whole entry): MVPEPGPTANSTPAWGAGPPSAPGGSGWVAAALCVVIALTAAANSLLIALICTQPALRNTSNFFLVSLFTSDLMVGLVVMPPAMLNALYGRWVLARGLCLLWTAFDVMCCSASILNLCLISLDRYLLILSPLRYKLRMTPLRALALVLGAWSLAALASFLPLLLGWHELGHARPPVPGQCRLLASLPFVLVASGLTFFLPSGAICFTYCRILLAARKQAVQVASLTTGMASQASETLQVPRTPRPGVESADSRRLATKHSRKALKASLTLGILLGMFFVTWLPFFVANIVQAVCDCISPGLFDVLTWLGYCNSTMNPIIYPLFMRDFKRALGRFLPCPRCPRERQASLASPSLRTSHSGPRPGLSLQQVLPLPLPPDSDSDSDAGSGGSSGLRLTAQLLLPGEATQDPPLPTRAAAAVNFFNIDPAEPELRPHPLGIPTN
Chain of D2 dopaminergic receptors (P14416 whole entry): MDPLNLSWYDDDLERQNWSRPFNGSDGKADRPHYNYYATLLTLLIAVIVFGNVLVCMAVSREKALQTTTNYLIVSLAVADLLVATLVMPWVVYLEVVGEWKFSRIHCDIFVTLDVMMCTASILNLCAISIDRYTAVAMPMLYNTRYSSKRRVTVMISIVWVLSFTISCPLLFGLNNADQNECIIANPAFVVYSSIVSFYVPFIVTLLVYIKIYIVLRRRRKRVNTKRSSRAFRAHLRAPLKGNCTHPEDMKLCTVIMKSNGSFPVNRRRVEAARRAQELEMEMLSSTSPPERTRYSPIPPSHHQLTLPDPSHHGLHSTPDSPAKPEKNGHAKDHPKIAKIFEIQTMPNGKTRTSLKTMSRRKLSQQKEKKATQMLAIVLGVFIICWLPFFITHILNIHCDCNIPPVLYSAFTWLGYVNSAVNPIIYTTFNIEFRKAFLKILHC
Chain of D3 dopaminergic receptors (P35462 whole entry): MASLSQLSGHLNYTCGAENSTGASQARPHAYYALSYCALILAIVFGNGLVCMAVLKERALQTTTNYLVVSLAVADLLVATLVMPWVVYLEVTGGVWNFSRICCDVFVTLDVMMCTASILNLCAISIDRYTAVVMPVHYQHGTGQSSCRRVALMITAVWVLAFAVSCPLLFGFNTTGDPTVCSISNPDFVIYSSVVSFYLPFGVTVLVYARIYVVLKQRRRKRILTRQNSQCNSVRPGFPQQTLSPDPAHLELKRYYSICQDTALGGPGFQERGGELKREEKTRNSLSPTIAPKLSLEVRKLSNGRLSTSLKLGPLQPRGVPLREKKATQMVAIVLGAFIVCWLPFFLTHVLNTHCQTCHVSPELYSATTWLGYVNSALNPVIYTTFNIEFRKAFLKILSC

As for `Cc1c(S(=O)(=O)N[C@@H]2CCN(CCCc3noc4cc(F)ccc34)C2)sc2ccc(Cl)cc12` [Compound 204, 5-Chloro-N-[(3R)-1-[3-(6-fluoro-1,2-benzoxazol-3-yl)propyl]pyrrolidin-3-yl]-3-methyl-benzothiophene-2-sulphonamide], in experiment [1], the “D2 ag [%]” value is listed as 1% and the “D2 antag [%]” value was determined as 86%. For the same compound, in experiment [2], the “D3 ag [%]” value is on record as −8% and the “D3 antag [%]” value is recorded as 109%. The “5-HT2A ag [%]” value in experiment [3] (setting [5]) is given as −1%. In addition, in experiment [4], the “5-HT6 ag [%]” value is recorded as −1%.

For `Cc1c(S(=O)(=O)N[C@H]2CCN(CCCc3noc4cc(F)ccc34)C2)sc2ccc(Cl)cc12` [Compound 205, 5-Chloro-N-[(3S)-1-[3-(6-fluoro-1,2-benzoxazol-3-yl)propyl]pyrrolidin-3-yl]-3-methyl-benzothiophene-2-sulphonamide], in experiment [1], the “D2 ag [%]” value is on record as 3% and the “D2 antag [%]” value was found to be 61%. Moreover, in experiment [2], the “D3 ag [%]” value worked out at 7% and the “D3 antag [%]” value is 95%. In addition, in experiment [3] (setting [5]), the “5-HT2A ag [%]” value is on record as −3%. For the same compound, the “5-HT6 ag [%]” value in experiment [4] is reported as 1%.

Turning to `O=S(=O)(N[C@@H]1CCN(CCCc2noc3cc(F)ccc23)C1)c1ccc2ccccc2c1` [Compound 206, N-[(3R)-1-[3-(6-Fluoro-1,2-benzoxazol-3-yl)propyl]pyrrolidin-3-yl]naphthalene-2-sulphonamide], in experiment [1], the “D2 ag [%]” value was found to be 1% and the “D2 antag [%]” value is given as 96%. Besides, in experiment [2], the “D3 ag [%]” value turned out to be 3% and the “D3 antag [%]” value is reported as 77%. Moreover, in experiment [3], the “5-HT2A ag [%]” value is −1%. For the same compound, in experiment [4], the “5-HT6 ag [%]” value is on record as −2%.

On to `O=S(=O)(N[C@@H]1CCN(CCCc2noc3cc(F)ccc23)C1)c1cc2ccccc2o1` [Compound 214, N-[(3R)-1-[3-(6-Fluoro-1,2-benzoxazol-3-yl)propyl]pyrrolidin-3-yl]benzo-furan-2-sulphonamide], for which, in experiment [1], the “D2 ag [%]” value turned out to be 3% and the “D2 antag [%]” value is 89%. In addition, the “D3 antag [%]” value in experiment [2] amounted to 117%. Moreover, the “5-HT2A ag [%]” value in experiment [3] (setting [5]) was −2%. Further, in experiment [4], the “5-HT6 ag [%]” value is listed as −4%.

As for `Cc1ccc2sc(S(=O)(=O)NC3CCN(CCCc4noc5cc(F)ccc45)C3)cc2c1` (centres unmarked) [Compound 226, N-[1-[3-(6-Fluoro-1,2-benzoxazol-3-yl)propyl]pyrrolidin-3-yl]-5-methylbenzothiophene-2-sulphonamide], in experiment [1], the “D2 ag [%]” value is on record as 0% and the “D2 antag [%]” value worked out at 87%. In addition, in experiment [2], the “D3 ag [%]” value is reported as −26% and the “D3 antag [%]” value is recorded as 107%. The “5-HT2A ag [%]” value in experiment [3] (setting [5]) is −1%. For the same compound, in experiment [4], the “5-HT6 ag [%]” value is given as −5%.

As to `COc1ccc2cc(S(=O)(=O)NC3CCN(CCCc4noc5cc(F)ccc45)C3)ccc2c1` (centres unmarked) [Compound 227, N-[1-[3-(6-Fluoro-1,2-benzoxazol-3-yl)propyl]pyrrolidin-3-yl]-6-methoxy-naphthalene-2-sulphonamide], in experiment [1], the “D2 ag [%]” value is 11% and the “D2 antag [%]” value came out at 99%. Also, in experiment [2], the “D3 ag [%]” value was −6% and the “D3 antag [%]” value was found to be 105%. Further, the “5-HT2A ag [%]” value in experiment [3] (setting [5]) was −2%. Further, the “5-HT6 ag [%]” value in experiment [4] is −4%.

As for `O=S(=O)(NC1CCN(CCCc2noc3cc(F)ccc23)C1)c1cc2ccc(F)cc2s1` (centres unmarked) [Compound 234, 6-Fluoro-N-[1-[3-(6-fluoro-1,2-benzoxazol-3-yl)propyl]pyrrolidin-3-yl]benzothiophene-2-sulphonamide], in experiment [1], the “D2 ag [%]” value is given as 2% and the “D2 antag [%]” value amounted to 91%. In addition, in experiment [2], the “D3 ag [%]” value is listed as −14% and the “D3 antag [%]” value worked out at 89%. For the same compound, the “5-HT2A ag [%]” value in experiment [3] turned out to be 1%. Besides, in experiment [4], the “5-HT6 ag [%]” value is reported as −1%.
